# Test results: paper PMC9254247, “Dual-sensitive antibacterial peptide nanoparticles prevent dental caries” (Theranostics, 2022)
# Key:
# [1] = system: S. mutans UA159 (ATCC 700610); assay: Minimal inhibition concentration (MIC) determination, S. mutans UA159; format: cell-based; conditions: Streptococcus mutans, ATCC700610, BHI medium, 48 h, A600
# Procedure: (§1) Minimal inhibition concentration (MIC) determination . S.mutans UA159 (ATCC 700610) and 20 clinical S.mutans strains were used. S.mutans UA159 was purchased from Shanghai Biofeng Biotechnology Co., LTD. These bacteria grown in brain heart infusion broth (BHI, Beijing Land Bridge, China) at 37 °C under anaerobic conditions.
# Due to bacteria incubation under the condition of excessive acid for a long time will affect its vitality, therefore, pH 5.5 was choose as acidic condition for the MIC determination. Peptides and CHX were dissolved in BHI medium of different pHs (pH 5.5 and 7.0) using serial dilutions to obtain different diluted solutions. 2 µL of bacteria (1×10^7 CFU (colony forming units) in the logarithmic phase were added into each well of 96-well plates containing 200 µL different diluted solutions. Note that […]
# the aggregate behavior of peptides. In order to avoid interfering with the MIC test, it is important to set up the control wells which only contain different concentrations of peptides in BHI medium of different pHs. The absorbance at 600 nm was detected with a microplate reader (Multiskan Spectrum, BioTek Inc., USA) after 48 h. The inhibition rate of drugs on bacteria was calculated based on the absorbance […]
# The SYTO 9 / PI double staining and scanning electron microscopy (SEM) were also performed to evaluate the bacterial killing and bacterial membrane disruption. […]
# S. mutans UA159 = assay: Bacterial killing assay (CFU counting), S. mutans UA159; format: cell-based, Streptococcus mutans; conditions: for bactericidal effect: 10 min
# Procedure: as §1, with “conditions. […]” for “conditions.”
# Bacterial killing by pHly-1 NPs at various pHs. pHly-1 NPs were diluted in BHI medium of different pHs (pH 4.5, 5.5, 6.8, and 7.0) to obtain specific diluted solutions (final volume of 200 μ L). 1 μ L bacterial suspension (2×10^8 CFU/mL) in the logarithmic phase was added into corresponding diluted solutions and mixed […]
# individually. […]
# aliquots of 20 μL bacterial suspension were plated on BHI agar plates. The bacterial killing activity of pHly -1 NPs was measured by counting the CFU of alive bacteria with agar plating after incubation under anaerobic conditions for 48 h at 37 °C. The results were determined and presented of three repeats. Bacterial survival(%) = CFU of bacteria treated with drugs/CFU of bacteria treated with negative control× 100% 2.
# The SYTO 9 / PI double staining and scanning electron microscopy (SEM) were also performed to evaluate the bacterial killing and bacterial membrane disruption.
# For SYTO 9/PI double staining, pHly -1 NPs was added to actively growing S. mutans UA159 (10^6 CFU/m L) at the concentration of 22 μM at pH 4.5 or pH 7.0, after 1 h incubation, the bacteria treated were imaged by using LIVE/DEAD BacLight Bacterial Viability Kit (Thermo Fisher Scientific). SYTO 9 and PI were added according to the manufacturer ’s protocol and used for labeling […]
# bacteria. […]
# For SEM, S. mutans UA159 was treated by the same way to SYTO 9/PI double staining asay and then harvested, washed, and then fixed in 2.5 % glutaraldehyde for 3 h. After dehydration by serial concentrations of ethanol solutions (10%, 25%, 50%, 75%, 95%, and 100%) and lyophiliz ation overnight, the lyophilized samples were coated with goldand then photographed by SEM.
structure (smiles),measurement,setting,value
"[H]/N=C(\N/C(=N/[H])NCCCCCCNC(=N)NC(=N)Nc1ccc(Cl)cc1)Nc1ccc(Cl)cc1 [CHX, chlorhexidine]",MIC,[1]; pH 5.5,0.5 µM
same,MIC,[1]; pH 7.0,1 µM
same,bactericidal effect,"S. mutans UA159; 22 μM, both acidic and neutral pH",no apparent bactericidal effect
same,bacterial survival,"S. mutans UA159; 22 μM, 120 min, kinetic assay",ca. 60%
same,bactericidal effect,"S. mutans UA159; 550 μM, both acidic and neutral conditions",kill bacteria completely
